Source: patent publication US6197536A, “Methodology to produce, and purify and assay polypeptides with the proteolytic activity of the HCV NS3 protease” (priority 1995, dated 2001)
pKi: −log10 of the molar value. Non-standard residues stand in square brackets, D forms with d. Residues, ends and D or L forms follow the SMILES beside them. No end group written: not given here. *: point of attachment. Dabcyl = CN(C)c1ccc(N=Nc2ccc(C(=O)*)cc2)cc1; EDANS = O=S(=O)(O)c1cccc2c(NCCN*)cccc12; AllylGly = C=CC[C@H](N)C(=O)O; Abu = CC[C@H](N)C(=O)O; Lac = C[C@H](O)C(=O)O

Key:
NS3 protease = molecular target: T1, NS3 protease (Hepatitis C virus genotype 1b, UniProt P26663); type: biochemical, hepatitis C virus (HCV)
T1 construct: The protein fragments contain variants of the protease domain of the HCV NS3 protein; added initiator Met (ATG start codon) (N); made in house
T1 sequence (P26663 1027-1208): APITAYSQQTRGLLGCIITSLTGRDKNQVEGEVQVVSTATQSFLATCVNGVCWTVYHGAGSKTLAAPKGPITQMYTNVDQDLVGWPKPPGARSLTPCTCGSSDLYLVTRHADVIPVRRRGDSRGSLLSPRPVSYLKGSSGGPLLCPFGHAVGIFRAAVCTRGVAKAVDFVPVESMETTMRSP
Excerpt: Using the HPLC-based assay, the following kinetic parameters were obtained for the radioactive depsipeptide substrate S1 (SEQ ID NO:44):
Synthesis of the radioactive depsipeptide substrates allows set-up of a high-throughput assay for determination of NS3 protease activity as schematically illustrated in FIG. 11. The principle is the following: both the intact substrate and the N-terminal fragment that originates from enzyme cleavage (Ac-Asp-Glu-Met-Glu-Glu-Abu-OH) (SEQ ID NO:49) are extremely acid, whereas the C-terminal fragment [HO-CH(CH3)CO-Ser-His-Leu-Pro-Tyr-Lys(N^ε -[^3 H]-CH3 CO)-NH2 ] (SEQ ID NO:50) is, according to pH, neutral or basic. It is therefore possible to capture the two acidic species on an anionic exchange resin, leaving the C-terminal fragment in solution. If the C-terminal fragment contains a radioactive marker (in this case the tritiated acetate covalently bonded to the ε-amino group of the C-terminal lysine), the resin will be able to discriminate processed substrate from non-processed substrate, thus making it possible to quantify proteolytic activity by measuring the amount of radioactivity remaining in solution after incubation with the enzyme and treatment with the ion exchanger. […]
Purification to >98% homogeneity was achieved through preparative HPLC on a Nucleosyl C-18 column (250×21 mm, 7 μm) using as eluents (A) 50 mM ammonium acetate, pH 6 and (B) acetonitrile. […] The kinetic parameters for this substrate, evaluated through the HPLC-based assay (see FIG. 14A), were the following:
The buffer used for the assay is the following: 33 mM DTT, 50 mM Tris, pH 7, 50% glycerol, 2% CHAPS. […] The assay can be run in a cuvette or in a (96-well) microtitre plate, monitoring the fluorescence as a function of time (Excitation wavelength […], Emission wavelength […]). The increase in fluorescence upon substrate cleavage is 13-fold. […]

HCV NS3 protease [1] = details: Example 4 amide substrate
HCV NS3 protease, sequence (P26663 1039-1206 limits assumed): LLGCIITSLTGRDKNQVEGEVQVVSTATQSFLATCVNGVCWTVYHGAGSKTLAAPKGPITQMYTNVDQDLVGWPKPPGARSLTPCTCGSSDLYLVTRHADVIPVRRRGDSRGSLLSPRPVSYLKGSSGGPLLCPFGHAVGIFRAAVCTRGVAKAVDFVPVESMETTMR
Description: (§1) Cleavage was detected by separating the substrate from the hydrolysis products by reverse-phase HPLC. For this purpose the mixture containing the buffer and the peptide incubated with the protease was injected into a reverse-phase Lichrospher RP-18 column (Merck) and eluted with an acetonitrile gradient containing 0.10% trifluoracetic acid. The cleavage products were identified by co-injection of appropriate standards, and by mass spectrometry. For these experiments, proteins produced by one of the methods described in examples 1 and 2 were used.
(§2) Dependence of the activity on temperature was analysed by means of an Arrhenius plot in which the logarithm of the kinetic constant Kcat is given as an inverse function of temperature.

NS3 protease + Pep4A = assay: Automatic assay using a radioactive amide substrate with anionic exchanger capture; type: biochemical, hepatitis C virus (HCV); details: 3 hours at 23° C., 40 μM unlabeled peptide, 200 nM protease, 1 μM Pep4A
NS3 protease + Pep4A, sequence (P26663 1039-1206, other chains not shown): as the sequence (P26663 1039-1206 limits assumed) above
Description: 400,000 cpm of the labelled peptide with a specific activity of 2-10 Ci/mmol. were incubated for 3 hours at 23° C. together with 40 μM (Km /2) of unlabeled peptide in the presence of 200 nM protease and 1 μM of Pep4A in 50 mM Tris pH 7.5, 50% glycerol, 3% CHAPS, 10 mM DTT. […] The fraction coming out of the exchanger is filtered, allowed to sediment or spun. The radioactivity is measured on the clear fraction, the amount of which is exclusively related to the right fragment (C-terminal), given that the amide substrate and the left hand fragment remain bound to the anionic exchanger. The addition of inhibitors causes a decrease in the release rate of the labelled cleaved fragment.

HCV NS3 protease [2] = molecular target: T2, HCV NS3 protease (Hepatitis C virus genotype 1b, UniProt P26663); assay: Competitive inhibition of NS3 protease by decapeptides P6-P4' modified at position P1; type: biochemical
T2 construct: The protein fragments contain variants of the protease domain of the HCV NS3 protein; added initiator Met (ATG start codon) (N); made in house
T2 sequence (P26663 1027-1208): as the sequence (P26663 1027-1208) above
Description: as §1, §2

HCV protease = molecular target: T3, HCV protease (Hepatitis C virus genotype 1b, UniProt P26663); assay: Effect of chymostatin on HCV protease activity; type: biochemical; details: 100 μg/ml used in homogenisation
T3 construct: added initiator Met (ATG start codon) (N); made in house; host or cells: E. coli BL21(DE3)
T3 sequence (P26663 1027-1206): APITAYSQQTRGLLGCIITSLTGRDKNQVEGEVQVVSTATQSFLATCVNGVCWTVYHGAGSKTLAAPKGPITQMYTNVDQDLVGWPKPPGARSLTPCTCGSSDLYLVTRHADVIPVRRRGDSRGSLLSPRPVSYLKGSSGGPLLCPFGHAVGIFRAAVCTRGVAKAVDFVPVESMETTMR
Description: 1. Homogenisation in the presence of 100 μg/ml of the chymostatin protease inhibitor. […] In this way it was possible to purify a single molecular species with more than 95% of form 2.

[3] = test system: CC(=O)N[C@@H](CC(=O)O)C(=O)N[C@@H](CS)C(=O)N[C@@H](CO)C(=O)N[C@H](C(=O)N1CCC[C@H]1C(=O)N[C@@H](CS)C(=O)N[C@@H](CO)C(=O)NCC(=O)N[C@@H](CO)C(=O)N[C@@H](Cc1c[nH]c2ccccc12)C(=O)O)[C@@H](C)O; assay: HPLC assay of peptide substrate cleavage by purified NS3 protease in the presence of Pep4A; type: biochemical, hepatitis C virus (HCV); details: other: Table 2, stoichiometric concentration, pH 7.5, 25.0 °C
Excerpt: (§3) As mentioned above, the protein NS4A is a cofactor of HCV protease. N and C-terminal deletion experiments have defined the peptide Pep4A with the sequence indicated in SEQ ID NO:6, as the minimum domain still capable of inducing optimal activation. In transfection or in vitro translation experiments the addition of polypeptides containing the minimum NS4A sequence is essential to give effective cleavage. […] The kinetic characteristics of this activation are described below. Using a titration experiment a stoichiometry of 1:1 was determined for this interaction at a concentration of […] of protease, indicating a Kd<300 nM.
(§4) These kinetics were obtained both in the absence and in the presence of stechiometric concentrations of Pep4A. […] When the Km values for the single substrates are compared it becomes evident that the presence of two negative charges in P5 and in P6 determined the bonding effectiveness of a peptide substrate.

[4] = test system: CSCC[C@H](NC(=O)[C@H](CCC(=O)O)NC(=O)[C@H](CC(=O)O)NC(C)=O)C(=O)N[C@@H](CCC(=O)O)C(=O)N[C@@H](CCC(=O)O)C(=O)N[C@@H](CS)C(=O)N[C@@H](C)C(=O)N[C@@H](CO)C(=O)N[C@@H](Cc1c[nH]cn1)C(=O)N[C@@H](CC(C)C)C(=O)O; assay: as above; type: biochemical, hepatitis C virus (HCV); details: other: Table 2, stoichiometric concentration, pH 7.5, 25.0 °C
Excerpt: as §3, §4

[5] = test system: CSCC[C@H](NC(=O)[C@H](CO)NC(=O)[C@H](CS)NC(=O)[C@H](CS)NC(=O)[C@@H](NC(=O)[C@@H](NC(=O)[C@H](CC(=O)O)NC(=O)[C@H](CCC(=O)O)NC(C)=O)C(C)C)C(C)C)C(=O)N[C@@H](CO)C(=O)N[C@@H](Cc1ccc(O)cc1)C(=O)O; assay: as above; type: biochemical, hepatitis C virus (HCV); details: other: Table 2, stoichiometric concentration, pH 7.5, 25.0 °C
Excerpt: as §3, §4

[6] = radioactive depsipeptide substrates, HPLC-based assay

## Ac-Asp-Glu-Met-Glu-Glu-Abu-.psi.-[COO]-Ala-Ser-His-Leu-Pro-Tyr-Lys(N^ ε -[^3 H]-CH3 CO)-NH2 [SEQ ID NO:44]
NS3 protease; [6]
  Km: 11 µM
  kcat: 0.15 s⁻¹

## Ac-Asp-Glu-Met-Glu-Glu-Cys-Ala-Ser-His-Leu-Pro-Tyr-Lys-ε-(^3 H)Ac (XEMEECASHLPYX; N-acetyl; tritiated epsilon-acetyl) [SEQ ID NO:47]
HCV NS3 protease [1]
  Km: 79 µM
  kcat: 0.00817 s⁻¹
  kcat /Km: 103 M⁻¹ s⁻¹
NS3 protease + Pep4A
  peptide substrate cleaved: 20%

## CC[C@H](NC(=O)[C@H](CCC(=O)O)NC(=O)[C@H](CCC(=O)O)NC(=O)[C@H](CC(=O)NCCNc1cccc2c(S(=O)(=O)O)cccc12)NC(=O)[C@H](CCC(=O)O)NC(=O)[C@H](CC(=O)O)NC(C)=O)C(=O)O[C@@H](C)C(=O)N[C@@H](CO)C(=O)N[C@@H](CCCCNC(=O)c1ccc(N=Nc2ccc(N(C)C)cc2)cc1)C(N)=O [S3, Ac-Asp-Glu-Asp-(EDANS)-Glu-Glu-Abu-.psi.[COO)-Ala-Ser-Lys-(DABCYL)NH2] (Ac-DED(EDANS)EE[Abu][Lac]SK(Dabcyl)-NH2)
NS3 protease; fluorogenic depsipeptide, same buffer
  kcat /Km: 5342 M⁻¹ s⁻¹

## Ac-DEMEEVASHL [Val]
HCV NS3 protease [2]
  pKi: 3.76

## CC(C)C[C@H](NC(=O)[C@@H](NC(=O)N[C@@H](Cc1ccccc1)C(=O)O)[C@@H]1CCN=C(N)N1)C(=O)N[C@H](C=O)Cc1ccccc1 [chymostatin]
HCV protease
  inhibition of HCV protease activity: does not inhibit

## Ac-DEMEEAASHL [Ala]
HCV NS3 protease [2]
  pKi: 3.76

## Ac-DEMEETASHL [Thr]
HCV NS3 protease [2]
  pKi: 3.67

## HCV NS3 protease + Pep4A (NS4A cofactor peptide) (Hepatitis C virus (isolate BK))
[3]
  Km: 320 µM
[4]
  Km: 43 µM
  kcat: 0.0233 s⁻¹
  kcat/Km: 540 M⁻¹ s⁻¹
[5]
  Km: 380 µM
  kcat: 0.25 s⁻¹
  kcat/Km: 650 M⁻¹ s⁻¹

## CC[C@H](NC(=O)[C@H](CCC(=O)O)NC(=O)[C@H](CCC(=O)O)NC(=O)[C@H](CCSC)NC(=O)[C@H](CCC(=O)O)NC(=O)[C@H](CC(=O)O)NC(C)=O)C(=O)N[C@@H](C)C(=O)N[C@@H](CO)C(=O)N[C@@H](Cc1c[nH]cn1)C(=O)N[C@@H](CC(C)C)C(=O)O [Abu] (Ac-DEMEE[Abu]ASHL-OH)
HCV NS3 protease [2]
  pKi: 3.76

## C=CC[C@H](NC(=O)[C@H](CCC(=O)O)NC(=O)[C@H](CCC(=O)O)NC(=O)[C@H](CCSC)NC(=O)[C@H](CCC(=O)O)NC(=O)[C@H](CC(=O)O)NC(C)=O)C(=O)N[C@@H](C)C(=O)N[C@@H](CO)C(=O)N[C@@H](Cc1c[nH]cn1)C(=O)N[C@@H](CC(C)C)C(=O)O [Alg] (Ac-DEMEE[AllylGly]ASHL-OH)
HCV NS3 protease [2]
  pKi: 3.78
